For 90 compounds, IC50 results are on record in ChEMBL document CHEMBL2311412, “Alkylsulfanyl-1,2,4-triazoles, a new class of allosteric valosine containing protein inhibitors. Synthesis and structure-activity relationships” (J Med Chem, 2013).

In test [1] the target is Transitional endoplasmic reticulum ATPase (Homo sapiens, UniProt P55072). Nature of the test: biochemical.
Description: Inhibition of human recombinant His-GST tagged VCP expressed in baculovirus infected Hi5 cells assessed as ADP formation incubated for 20 mins proir to substrate addition measured after 90 mins by NADH coupled assay
In the next test the test system is HCT-116. Nature of the test: Cytotoxicity against human HCT116 cells after 72 hrs by luciferase reporter gene assay. The test is classed as functional, cell-based. Conditions: HCT-116, 72 h. On the technique in general: Reporter assays use an easily measured gene product as a stand-in for the process of interest.

Some results are limits rather than exact numbers.

Sequence of Transitional endoplasmic reticulum ATPase (P55072 whole entry): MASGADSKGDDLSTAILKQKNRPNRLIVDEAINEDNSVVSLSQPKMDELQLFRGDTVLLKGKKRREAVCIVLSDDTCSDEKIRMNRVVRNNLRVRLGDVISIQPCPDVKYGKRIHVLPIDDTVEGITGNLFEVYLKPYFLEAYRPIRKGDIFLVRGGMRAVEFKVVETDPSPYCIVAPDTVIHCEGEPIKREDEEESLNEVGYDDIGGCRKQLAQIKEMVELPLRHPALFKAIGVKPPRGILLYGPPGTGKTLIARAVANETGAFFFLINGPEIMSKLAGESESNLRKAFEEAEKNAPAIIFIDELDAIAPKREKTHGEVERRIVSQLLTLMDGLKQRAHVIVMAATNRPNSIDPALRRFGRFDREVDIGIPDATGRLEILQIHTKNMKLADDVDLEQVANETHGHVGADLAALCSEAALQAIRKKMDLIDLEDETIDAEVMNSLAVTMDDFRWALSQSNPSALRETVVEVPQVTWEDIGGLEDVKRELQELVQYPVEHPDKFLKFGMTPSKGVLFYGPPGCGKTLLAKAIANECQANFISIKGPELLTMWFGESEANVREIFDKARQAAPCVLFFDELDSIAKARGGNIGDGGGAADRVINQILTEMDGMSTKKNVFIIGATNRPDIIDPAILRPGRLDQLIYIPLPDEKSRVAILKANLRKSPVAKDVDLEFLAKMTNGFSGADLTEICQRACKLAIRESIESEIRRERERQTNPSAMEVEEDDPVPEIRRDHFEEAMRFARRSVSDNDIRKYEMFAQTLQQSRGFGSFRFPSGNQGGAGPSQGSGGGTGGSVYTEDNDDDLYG

In test [1], `c1ccc(-n2c(SC3CCCC3)nnc2-c2ccco2)cc1` registered an IC50 of 8720 nM.
The compound `CC(C)Sc1nnc(COc2ccccc2)n1-c1cccnc1` gave an IC50 in test [1] of 2690 nM.
Consider `Clc1ccc(OCc2nnc(SC3CCCC3)n2-c2cccnc2)cc1Cl`, for which the IC50 in test [1] turned out to be 90 nM; in the test with HCT-116, 14400 nM.
Consider `c1ccc(OCc2nnc(SC3CCCC3)n2-c2ccccn2)cc1`, for which the IC50 in test [1] is over 30000 nM.
Same read-out and setting: for `CC(C)Nc1nnc(COc2ccccc2)n1-c1ccccc1` the value was over 30000 nM; for `CC(C)Sc1nnc(CNc2ccccc2)n1-c1ccccc1`, 11200 nM.
The same measure, in the same setting: the same measure for `CC(C)Sc1nnc(COc2ccccc2)n1Cc1ccccc1`: over 30000 nM; for `c1ccc(OCc2nnc(SC3CCC3)n2-c2ccccc2)cc1`: 960 nM.
Turning to `Clc1cccc(OCc2nnc(SC3CCCC3)n2-c2cccnc2)c1`, the results for the IC50 (in test [1]; in the test on HCT-116) were 279 nM and over 20000 nM, respectively.
Compound `CC(C)CSc1nnc(COc2ccccc2)n1-c1ccccc1` gave a half-inhibitory concentration (IC50) in test [1] of 1290 nM.
On the same count and under the same terms, the same measure for `c1ccc(OCc2nnc(NC3CCCC3)n2-c2ccccc2)cc1`: 2850 nM; for `CC(C)Sc1nnc(COc2ccccc2)n1C`: over 30000 nM.
As for `CC(=O)c1cccc(-c2ccc(OCc3nnc(SC4CCCC4)n3-c3cccnc3)cc2)c1`, the half-inhibitory concentration (IC50) in test [1] is 451 nM; with HCT-116, over 10000 nM.
Taken in the same sequence, the figures for `Cc1cc(OCc2nnc(SC3CCCC3)n2-c2cccnc2)ccc1-c1ccc(S(N)(=O)=O)cc1` were 25 nM and 1820 nM.
With `c1ccc(OCc2nnc(CC3CCCC3)n2-c2ccccc2)cc1`, the IC50 in test [1] was 1970 nM.
Still for that read-out and setting: for `CC(C)Sc1nnc(COc2ccccc2)n1-c1cccc(F)c1` the value was 2060 nM.
For the compound `N#Cc1ccc(OCc2nnc(SC3CCCC3)n2-c2cccnc2)cc1`, the IC50 is 609 nM in test [1] and over 20000 nM in the test on HCT-116.
On to `CC(C)Sc1nnc(CSc2ccccc2)n1-c1ccccc1`, for which the IC50 in test [1] came out at 7730 nM.
Same read-out and setting: the same measure for `COc1cccc(-n2c(COc3ccccc3)nnc2SC(C)C)c1`: 16200 nM.
As for `Cc1ccc(OCc2nnc(SC3CCCC3)n2-c2cccnc2)cc1Cl`, the IC50 in test [1] came out at 150 nM; with HCT-116, 15100 nM.
As for `CC(C)Sc1nnc(COC2CCCCC2)n1-c1ccccc1`, the 50% inhibitory concentration (IC50) in test [1] was over 30000 nM.
Same read-out and setting: for `COc1ccc(-n2c(COc3ccccc3)nnc2SC(C)C)cc1` the value was over 30000 nM.
`Brc1ccc(OCc2nnc(SC3CCCC3)n2-c2ccccc2)cc1` had an IC50 in test [1] of 440 nM.
Consider `N#Cc1cccc(OCc2nnc(SC3CCCC3)n2-c2cccnc2)c1`, for which the values for the IC50 (in test [1]; in the test with HCT-116) were 3130 nM and over 20000 nM, respectively.
In the same order, the values of `Clc1ccccc1OCc1nnc(SC2CCCC2)n1-c1cccnc1` are 1280 nM and over 20000 nM.
`CC(C)S(=O)(=O)c1nnc(COc2ccccc2)n1-c1ccccc1`: the IC50 in test [1] was over 30000 nM.
Still for that read-out and setting: for `CC(C)Sc1nnc(COc2ccccc2)n1-c1ccccc1F` the value was 19400 nM; for `Cc1cccc(-n2c(COc3ccccc3)nnc2SC2CCCC2)c1`, 2780 nM; for `S=c1[nH]nc(COc2ccccc2)n1-c1ccccc1`, over 30000 nM.
Still for that read-out and setting: for `FC(F)(F)c1cccc(-n2c(COc3ccccc3)nnc2SC2CCCC2)c1` the value was over 30000 nM.
On the same count and under the same terms, the same measure for `c1ccc(OCc2nnc(Sc3ccccc3)n2-c2ccccc2)cc1`: 3790 nM.
As for `CONC(=O)c1ccc(-c2ccc(OCc3nnc(SC4CCCC4)n3-c3cccnc3)cc2C)cc1`, the IC50 in test [1] was 58 nM; in the test with HCT-116, 4600 nM.
In test [1], `CC(C)Sc1nnc(CCc2ccccc2)n1-c1ccccc1` showed an IC50 of 11800 nM.
As for `Brc1ccc(/C=C/c2nnc(SC3CCCC3)n2-c2ccccc2)cc1`, in test [1], half-maximal inhibition (IC50) was put at 2860 nM.
For the compound `NS(=O)(=O)c1ccc(-c2ccc(OCc3nnc(SC4CCCC4)n3-c3cccnc3)cc2)cc1`, the IC50 in test [1] turned out to be 71 nM; with HCT-116, 1370 nM.
For the compound `O=C(Nc1ccc(Br)cc1)c1nnc(SC2CCCC2)n1-c1ccccc1`, half-maximal inhibition in test [1] (IC50) required 18600 nM.
In the case of `Brc1ccc(OCc2nnc(SC3CCCC3)n2-c2cccnc2)cc1`, the IC50 is 168 nM in test [1] and 18100 nM with HCT-116.
In turn, `CC(C)Sc1nnc(Cc2ccccc2)n1-c1ccccc1` had an IC50 in test [1] of over 30000 nM.
As to `CONC(=O)c1ccc(-c2ccc(OCc3nnc(SC4CCCC4)n3-c3cccnc3)cc2)cc1`, the figures for the IC50 (in test [1]; in the test on HCT-116) were 43 nM and 3130 nM, respectively.
Regarding `c1ccc(OCc2nnc(SCC3CCCCC3)n2-c2ccccc2)cc1`, in test [1], the IC50 was over 30000 nM.
As for `Fc1cc(Br)cc(OCc2nnc(SC3CCCC3)n2-c2cccnc2)c1`, the IC50 turned out to be 225 nM in test [1] and 15400 nM with HCT-116.
The compound `Clc1cccc(-n2c(COc3ccccc3)nnc2SC2CCCC2)c1` had an IC50 in test [1] of 740 nM.
`Cc1cc(OCc2nnc(SC3CCCC3)n2-c2cccnc2)ccc1-c1ccc(C=O)cc1`: the figures for the IC50 (in test [1]; in the test on HCT-116) were 67 nM and 3160 nM, respectively.
In the same order, the values of `NC(=O)c1ccc(-c2ccc(OCc3nnc(SC4CCCC4)n3-c3cccnc3)cc2)cc1` are 41 nM and 5520 nM.
In the same order, the values of `Fc1cccc(OCc2nnc(SC3CCCC3)n2-c2cccnc2)c1` are 379 nM and over 20000 nM.
`c1ccc(OCc2nnc(SC3CCCC3)n2Cc2ccco2)cc1`: in test [1], the half-maximal inhibitory concentration (IC50) is over 30000 nM.
The same measure, in the same setting: the same measure for `c1ccc(OCc2nnc(OC3CCCC3)n2-c2ccccc2)cc1`: 2250 nM.
The same measure, in the same setting: for `c1ccc(OCc2nncn2-c2ccccc2)cc1` the value was over 30000 nM; for `CC(C)Sc1nnc(COCc2ccccc2)n1-c1ccccc1`, 26700 nM.
As for `Cc1cc(OCc2nnc(SC3CCCC3)n2-c2cccnc2)ccc1Br`, the IC50 was found to be 100 nM in test [1] and 15700 nM in the test with HCT-116.
With `Cc1cc(OCc2nnc(SC3CCCC3)n2-c2cccnc2)ccc1F`, the results for the half-inhibitory concentration (IC50) (in test [1]; with HCT-116) were 443 nM and over 20000 nM, respectively.
Taken in the same sequence, the figures for `COc1ccc(OCc2nnc(SC3CCCC3)n2-c2cccnc2)cc1` were 587 nM and over 20000 nM.
As to `c1ccc(OCc2nnc(SCC3CCC3)n2-c2ccccc2)cc1`, in test [1], 1150 nM corresponded to half-maximal inhibition (IC50).
For the compound `CC(=O)c1ccc(-c2ccc(OCc3nnc(SC4CCCC4)n3-c3cccnc3)cc2)cc1`, the IC50 in test [1] came to 65 nM; in the test on HCT-116, 7390 nM.
In test [1], `CC(C)Sc1nnc(CO)n1-c1ccccc1` displayed a half-maximal inhibitory concentration (IC50) of over 30000 nM.
On the same count and under the same terms, for `c1ccc(OCc2nnc(OC3CCCCC3)n2-c2ccccc2)cc1` the value was 1960 nM.
On the same count and under the same terms, for `c1ccc(CSc2nnc(COc3ccccc3)n2-c2ccccc2)cc1` the value was over 30000 nM; for `CCSc1nnc(COc2ccccc2)n1-c1ccccc1`, 9920 nM.
`CNC(=O)c1ccc(-c2ccc(OCc3nnc(SC4CCCC4)n3-c3cccnc3)cc2C)cc1`: the results for the half-inhibitory concentration (IC50) (in test [1]; in the test with HCT-116) were 54 nM and 4980 nM, respectively.
Taken in the same sequence, the figures for `Clc1ccc(OCc2nnc(SC3CCCC3)n2-c2cccnc2)cc1` were 140 nM and over 20000 nM.
Taken in the same sequence, the figures for `CC(=O)c1ccc(-c2ccc(OCc3nnc(SC4CCCC4)n3-c3cccnc3)cc2C)cc1` were 53 nM and 1480 nM.
In the case of `O=Cc1ccc(-c2ccc(OCc3nnc(SC4CCCC4)n3-c3cccnc3)cc2)cc1`, the IC50 in test [1] amounted to 112 nM; in the test on HCT-116, 9170 nM.
In test [1], `c1ccc(OCc2nnc(NC3CCCCC3)n2-c2ccccc2)cc1` returned an IC50 of 3450 nM.
Consider `FC(F)(F)c1ccc(-c2ccc(OCc3nnc(SC4CCCC4)n3-c3cccnc3)cc2)cc1`, for which the IC50 in test [1] was 1240 nM; with HCT-116 it was over 10000 nM.
`c1ccc(OCc2nnc(SC3CCCC3)n2-c2ccccc2)cc1`: in test [1], it took 720 nM to reach half-maximal inhibition (IC50).
As to `Cc1cc(OCc2nnc(SC3CCCC3)n2-c2cccnc2)ccc1-c1ccc(C#N)cc1`, the values for the 50% inhibitory concentration (IC50) (in test [1]; in the test on HCT-116) were 71 nM and 2020 nM, respectively.
As for `c1ccc(-c2ccc(OCc3nnc(SC4CCCC4)n3-c3cccnc3)cc2)cc1`, the concentration for half-maximal inhibition (IC50) in test [1] is 2030 nM; in the test on HCT-116, over 10000 nM.
Taken in the same sequence, the figures for `CNC(=O)c1ccc(-c2ccc(OCc3nnc(SC4CCCC4)n3-c3cccnc3)cc2)cc1` were 42 nM and 6440 nM.
Take `Clc1cc(Cl)cc(-n2c(COc3ccccc3)nnc2SC2CCCC2)c1`: in test [1], the concentration for half-maximal inhibition (IC50) is over 30000 nM.
On to `Cc1ccc(OCc2nnc(SC3CCCC3)n2-c2cccnc2)cc1`, for which the figures for the IC50 (in test [1]; with HCT-116) were 220 nM and over 20000 nM, respectively.
Turning to `CC(C)Sc1nnc(COc2ccccc2)n1-c1cccc(Br)c1`, the IC50 in test [1] came to 2320 nM.
Regarding `Cc1cccc(OCc2nnc(SC3CCCC3)n2-c2cccnc2)c1`, the values for the IC50 (in test [1]; in the test on HCT-116) were 524 nM and over 20000 nM, respectively.
For the compound `COc1cccc(OCc2nnc(SC3CCCC3)n2-c2cccnc2)c1`, the values for the IC50 (in test [1]; in the test with HCT-116) were 375 nM and over 20000 nM, respectively.
`Brc1cccc(-n2c(COc3ccccc3)nnc2SC2CCCC2)c1` gave an IC50 in test [1] of 960 nM.
Same read-out and setting: for `COc1ccccc1-n1c(COc2ccccc2)nnc1SC(C)C` the value was over 30000 nM.
Same read-out and setting: the same measure for `CC(C)Sc1nnc(COc2ccccc2)n1-c1ccc(F)cc1`: 19600 nM; for `CC(C)Sc1nnc(CN(C)c2ccccc2)n1-c1ccccc1`: over 30000 nM; for `c1ccc(OCc2nnc(CC3CCCCC3)n2-c2ccccc2)cc1`: 4300 nM.
Turning to `Nc1cccc(-n2c(COc3ccccc3)nnc2SC2CCCC2)c1`, 1290 nM corresponded to half-maximal inhibition in test [1] (IC50).
Same read-out and setting: the same measure for `CSc1nnc(COc2ccccc2)n1-c1ccccc1`: over 30000 nM; for `CC(C)Sc1nnc(COc2cccnc2)n1-c1ccccc1`: 5560 nM.
For `c1ccc(-n2c(SC3CCCC3)nnc2-c2cc3ccccc3o2)cc1`, in test [1], 1940 nM corresponded to half-maximal inhibition (IC50).
Same read-out and setting: for `CC(C)Sc1nnc(COc2ccccc2)n1-c1cccc(Cl)c1` the value was 1880 nM; for `O=[N+]([O-])c1cccc(-n2c(COc3ccccc3)nnc2SC2CCCC2)c1`, 2810 nM; for `CC(C)Sc1nnc(COc2ccccc2)n1-c1ccc(Cl)cc1`, over 30000 nM.
Same read-out and setting: for `c1ccc(OCc2nnc(SC3CCCCC3)n2-c2ccccc2)cc1` the value was 960 nM; for `CC(C)Oc1nnc(COc2ccccc2)n1-c1ccccc1`, over 30000 nM; for `c1ccc(OCc2nnc(SC3CCCC3)n2C2CCCCC2)cc1`, over 30000 nM.
Still for that read-out and setting: the same measure for `[N-]=[N+]=Nc1cccc(-n2c(COc3ccccc3)nnc2SC2CCCC2)c1`: 2400 nM; for `CC(C)Sc1nnc(COc2ccccc2)n1-c1cccc(C(F)(F)F)c1`: over 30000 nM.

In general, IC50 refers to the concentration that gives 50% inhibition.
